# Data published in US11472798B2 (Mission Therapeutics Limited, priority 2014, dated 2022).
# Biological target: T1, UCHL1 (Homo sapiens, UniProt P09936)
# T1 construct: made in house; host or cells: HEK293T
# T1 sequence (P09936 1-223): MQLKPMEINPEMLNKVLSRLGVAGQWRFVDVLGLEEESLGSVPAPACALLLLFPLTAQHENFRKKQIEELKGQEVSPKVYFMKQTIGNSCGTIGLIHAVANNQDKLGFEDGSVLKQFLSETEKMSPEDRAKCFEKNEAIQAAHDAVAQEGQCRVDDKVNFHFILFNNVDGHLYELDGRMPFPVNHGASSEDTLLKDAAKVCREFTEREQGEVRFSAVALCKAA
# Assay: UCHL1 biochemical IC50 assay (fluorescence polarisation)
# Settings: 30 min enzyme/compound pre-incubation at room temp, read after 2 hr incubation, read-out: Activity range (UCHL1 biochemical IC50 assay)
# Excerpt: Biological Activity of Compounds of the Invention Abbreviations: TAMRA carboxytetramethylrhodamine PCR polymerase chain reaction PBS phosphate buffered saline EDTA ethylenediaminetetraacetic acid Tris 2-amino-2-(hydroxymethyl)-1,3-propanediol NP-40 Nonidet P-40, octylphenoxypolyethoxyethanol BSA bovine serum albumin In Vitro UCHL1 Inhibition Assay Expression and Purification of UCHL1
# The UCHL1 construct was PCR amplified and cloned into a pFLAG-CMV-6a vector (Sigma-Aldrich) with an N-terminal FLAG tag. HEK293T cells were transfected with FLAG-UCHL1 using TransIT-LT1 transfection reagent (Mirus) according to the manufacturer's instructions. Cells were harvested 40 hours after transfection. Cells were washed once with PBS and scraped in lysis buffer (50 mM Tris, pH 7.5, 150 mM NaCl, 3 mM EDTA, 0.5% NP40, 10% glycerol, 5 mM beta-mercaptoethanol, protease inhibitors (complete mini, Roche) and phosphatase inhibitors (PhosSTOP mini, Roche). Lysates were incubated for 30 min on ice and centrifuged at 1200 rpm for 10 min at 4° C. Soluble supernatant was added to FLAG affinity resin (EZview Rad ANTI-FLAG M2 affinity gel, Sigma-Aldrich) equilibrated in low salt buffer (20 mM Tris, pH 7.5, 150 mM NaCl, 0.5 mM EDTA, 5 mM beta-mercaptoethanol) and incubated at 4° C. for 3 hours rotating. The resin was spun at 2000 rpm for 2 min and the supernatant was removed. The resin was washed two times with low salt buffer and one time with high salt buffer (20 mM Tris, pH 7.5, 500 mM NaCl, 0.5 mM EDTA, 5 mM beta-mercaptoethanol, protease inhibitors (complete mini, Roche) and phosphatase inhibitors (PhosSTOP mini, Roche). To elute the bound UCHL1, elution buffer (10 mM Tris, pH 7.5, 150 mM NaCl, 0.5 mM FDTA, 10% glycerol, 0.5% NP40, 5 mM beta-mercaptoethanol, 0.15 mg/ml 3×FLAG peptide (Sigma-Aldrich)) was added to the resin and incubated at 4° C. for 2.5 hours rotating. The resin was centrifuged at 4000 rpm for 30 seconds, and the supernatant containing purified FLAG-UCHL1 was removed and stored at −80° C.
# UCHL1 Biochemical IC50 Assay
# Dilution plates were prepared at 21 times the final concentration (2100 μM for a final concentration of 100 µM) in 50% DMSO in a 96-well polypropylene V-bottom plate (Greiner #651201). A typical 8-point dilution series to be 100, 30, 10, 3, 1, 0.3, 0.1, 0.03 μM final. Reactions were performed in duplicate in black 384 well plates (small volume, Greiner 784076) in a final reaction volume of 21 μl. Either 1 μl of 50% DMSO or diluted compound was added to the plate. UCHL1 was diluted in reaction buffer (20 mM Tris, pH 7.5, 100 mM NaCl, 0.05% Tween 20, 0.5 mg/ml BSA, 5 mM—beta mercaptoethanol) to the equivalent of 0.05 μl/well and 10 μl of diluted UCHL1 was added to the compound. Enzyme and compound were incubated for 30 min at room temp. Reactions were initiated by the addition of 50 nM of TAMRA labelled peptide linked to ubiquitin via an iso-peptide bond as fluorescence polarisation substrate. Reactions were read immediately after addition of substrate and following a 2 hr incubation at room temperature. Readings were performed on a Pherastar Plus (BMG Labtech). λ Excitation 540 nm; k Emission 590 nm.
row,IC50,SMILES
1,< 1000 nM,"N#CN1CC[C@H](C(=O)Nc2cn(-c3ccc(-c4cn[nH]c4)cc3)cn2)C1 [Example 294, (S)-N-(1-(4-(1H-pyrazol-4-yl)phenyl)-1H-imidazol-4-yl)-1-cyanopyrrolidine-3-carboxamide]"
2,< 1000 nM,"N#CN1CCC(C(=O)Nc2ncc(-c3cccc(F)c3)s2)C1 (centres unmarked) [Example 2, 1-cyano-N-(5-(3-fluorophenyl)thiazol-2-yl)pyrrolidine-3-carboxamide]"
3,< 1000 nM,"COC1(C(=O)Nc2ncc(-c3ccccc3)s2)CCN(C#N)C1 (centres unmarked) [Example 284, 1-cyano-3-methoxy-N-(5-phenylthiazol-2-yl)pyrrolidine-3-carboxamide]"
4,< 1000 nM,"Cc1ccnc(-n2cnc(NC(=O)[C@H]3CCN(C#N)C3)c2)c1 [Example 174, (S)-1-cyano-N-(1-(4-methylpyridin-2-yl)-1H-imidazol-4-yl)pyrrolidine-3-carboxamide]"
5,< 1000 nM,"N#CN1CC[C@H](C(=O)Nc2ncc(-c3ccnnc3)s2)C1 [Example 213, (S)-1-cyano-N-(5-(pyridazin-4-yl)thiazol-2-yl)pyrrolidine-3-carboxamide]"
6,1000 to 10000 nM,"N#CN1CC[C@H](C(=O)Nc2cc3ccccn3n2)C1 [Example 267, (S)-1-cyano-N-(pyrazolo[1,5-a]pyridin-2-yl)pyrrolidine-3-carboxamide]"
7,1000 to 10000 nM,"COc1ccc(-c2ccc3nc(NC(=O)[C@H]4CCN(C#N)C4)sc3c2)cc1 [Example 121, (S)-1-cyano-N-(6-(4-methoxyphenyl)benzo[d]thiazol-2-yl)pyrrolidine-3-carboxamide]"
8,10000 to 30000 nM,"N#CN1CCC(C(=O)Nc2cnc(-c3ccccc3)nc2)C1 (centres unmarked) [Example 37, 1-cyano-N-(2-phenyl-pyrimidin-5-yl)pyrrolidine-3-carboxamide]"
9,1000 to 10000 nM,"N#CN1CC(C(=O)Nc2ncc(-c3ccccc3)s2)C2CC21 (centres unmarked) [Example 280, 2-cyano-N-(5-phenylthiazol-2-yl)-2-azabicyclo[3.1.0]hexane-4-carboxamide]"
10,1000 to 10000 nM,"CN1CCc2nc(NC(=O)[C@H]3CCN(C#N)C3)sc2C1 [Example 200, (S)-1-cyano-N-(5-methyl-4,5,6,7-tetrahydrothiazolo[5,4-c]pyridin-2-yl)pyrrolidine-3-carboxamide]"
11,1000 to 10000 nM,"N#CN1CC[C@H](C(=O)Nc2cc3cc(C(N)=O)ccc3cn2)C1 [Example 265, (S)-3-(1-cyanopyrrolidine-3-carboxamido)isoquinoline-6-carboxamide]"
12,< 1000 nM,"N#CN1CCC(C(=O)Nc2ncc(-c3ccc(N)cc3)s2)C1 (centres unmarked) [Example 111, N-(5-(4-aminophenyl)thiazol-2-yl)-1-cyanopyrrolidine-3-carboxamide]"
13,1000 to 10000 nM,"N#CN1CCC(C(=O)Nc2ccc(-c3cccnc3)cn2)C1 (centres unmarked) [Example 33, N-([3,3′-bipyridin]-6-yl)-1-cyano-pyrrolidine-3-carboxamide]"
14,< 1000 nM,"Cn1cc(-c2ccc3nc(NC(=O)[C@H]4CCN(C#N)C4)sc3c2)cn1 [Example 124, (S)-1-cyano-N-(6-(1-methyl-1H-pyrazol-4-yl)benzo[d]thiazol-2-yl)pyrrolidine-3-carboxamide]"
15,< 1000 nM,"N#CN1CCC(C(=O)Nc2nc3ccc(C4CC4)cc3s2)C1 (centres unmarked) [Example 130, 1-cyan-N-(6-cyclopropylbenzo[d]thiazol-2-yl)pyrrolidine-3-carboxamide]"
16,1000 to 10000 nM,"C[C@@H]1CN(C#N)C[C@H]1C(=O)Nc1cn(-c2ccccc2)cn1 [Example 85, (f)-1-cyano-4-methyl-N-(1-phenyl-1H-imidazol-4-yl)pyrrolidine-3-carboxamide]"

row,IC50,SMILES
1,1000 to 10000 nM,"N#CN1CCC(C(=O)Nc2ccc(-c3ccncc3)cn2)C1 (centres unmarked) [Example 34, N-([3,4′-bipyridin]-6-yl)-1-cyano-pyrrolidine-3-carboxamide]"
2,1000 to 10000 nM,"CC[C@@H]1CN(C#N)C[C@H]1C(=O)Nc1cn(-c2ccccc2)cn1 [Example 87, (6)-1-cyano-4-ethyl-N-(1-phenyl-1H-imidazol-4-yl)pyrrolidine-3-carboxamide]"
3,< 1000 nM,"Cc1noc(C)c1-c1ccc2nc(NC(=O)[C@@H]3CN(C#N)C[C@H]3C(F)(F)F)cn2c1 (racemic) [Example 210, (±)-trans-1-cyano-N-(6-(3,5-dimethylisoxazol-4-yl)imidazo[1,2-a]pyridin-2-yl)-4-(trifluoromethyl)pyrrolidine-3-carboxamide]"
4,1000 to 10000 nM,"CCCn1cnc2cc(NC(=O)C3CCN(C#N)C3)ccc21 (centres unmarked) [Example 40, 1-cyano-N-(1-propyl-1H-benzo[d]imidazol-5-yl)pyrrolidine-3-carboxamide]"
5,< 1000 nM,"N#CN1CC[C@H](C(=O)Nc2ncc(-c3ccncc3)s2)C1 [Example 69, (S)-1-cyano-N-(5-(pyridin-4-yl)thiazol-2-yl)pyrrolidine-3-carboxamide]"
6,1000 to 10000 nM,"N#CN1CC[C@H](C(=O)Nc2cc(-c3ccnc(N)c3)ccn2)C1 [Example 258, (S)-N-(2′-amino-[4,4′-bipyridin]-2-yl)-1-cyanopyrrolidine-3-carboxamide]"
7,1000 to 10000 nM,"N#CN1CC[C@@H](C(=O)Nc2ncc(N3CCCCC3)s2)C1 [Example 103, (R)-1-cyano-N-(5-(piperidin-1-yl)thiazol-2-yl)pyrrolidine-3-carboxamide]"
8,1000 to 10000 nM,"N#CN1CCC(C(=O)Nc2ccc(N3CCOCC3)cn2)C1 (centres unmarked) [Example 28, 1-cyano-N-(5-morpholino-pyridin-2-yl)pyrrolidine-3-carboxamide]"
9,< 1000 nM,"N#CN1CC[C@H](C(=O)Nc2nc3c(s2)CN(S(=O)(=O)c2ccccc2)CC3)C1 [Example 204, (S)-1-cyano-N-(5-(phenylsulfonyl)-4,5,6,7-tetrahydrothiazolo[5,4-c]pyridin-2-yl)pyrrolidine-3-carboxamide]"
10,< 1000 nM,"N#Cc1ccc(OC2COC2)cc1-n1cnc(NC(=O)[C@H]2CCN(C#N)C2)c1 [Example 250, (S)-1-cyano-N-(1-(2-cyano-5-(oxetan-3-yloxy)phenyl)-1H-imidazol-4-yl)pyrrolidine-3-carboxamide]"
11,< 1000 nM,"N#CN1CC[C@H](C(=O)Nc2cn(-c3ccccc3F)cn2)C1 [Example 152, (S)-1-cyano-N-(1-(2-fluorophenyl)-1H-imidazol-4-yl)pyrrolidine-3-carboxamide]"
12,1000 to 10000 nM,"CC(C)(C)c1ccnc(NC(=O)[C@H]2CCN(C#N)C2)c1 [Example 273, (S)-N-(4-(tert-butyl)pyridin-2-yl)-1-cyanopyrrolidine-3-carboxamide]"
13,< 1000 nM,"COC[C@H]1CCCN1c1cnc(NC(=O)[C@H]2CCN(C#N)C2)s1 [Example 99, (S)-1-cyano-N-(5-((R)-2-(methoxymethyl)pyrrolidin-1-yl)thiazol-2-yl)pyrrolidine-3-carboxamide]"
14,< 1000 nM,"COc1ccccc1C(=O)N1CCc2nc(NC(=O)[C@H]3CCN(C#N)C3)sc2C1 [Example 192, (S)-1-cyano-N-(5-(2-methoxybenzoyl)-4,5,6,7-tetrahydrothiazolo[5,4-c]pyridin-2-yl)pyrrolidine-3-carboxamide]"
15,10000 to 30000 nM,"COCC1(C(=O)Nc2ncc(-c3ccccc3)s2)CCN(C#N)C1 (centres unmarked) [Example 80, I-cyano-3-(methoxymethyl)-N-(5-phenylthiazol-2-yl)pyrrolidine-3-carboxamide]"
16,< 1000 nM,"N#CN1CC[C@H](C(=O)Nc2cn(C3CCN(C(=O)c4ccccc4)C3)cn2)C1 (stereo partly drawn) [Example 185, (3S)—N-(1-(1-benzoylpyrrolidin-3-yl)-1H-imidazol-4-yl)-1-cyanopyrrolidine-3-carboxamide]"
